Measured values taken from patent publication US10246426B2, “Triazole compounds as T-type calcium channel blockers” (IDORSIA PHARMACEUTICALS LTD, priority 2014, dated 2019).

Target: Cav3.2 (Homo sapiens, UniProt O95180)
Test: Calcium flux FLIPR assay, HEK293 cells recombinantly expressing Cav3.2
Type: cell-based
Conditions: Cav3.2-channel, Ca2+ entry stimulated by 10 mM CaCl2
Procedure: In Vitro Methods—Measurement of Calcium Channel Flux by Means of FLIPR Assays.
HEK293 cells recombinantly expressing either voltage-dependent T-type calcium channel subunit […] (Cav3.2) or voltage-dependent L-type calcium channel subunit alpha-1C (Cav1.2) are assayed for calcium flux using the calcium indicator dye Fluo-4-AM (Molecular Devices) and FLIPR technology (Fluorometric Imaging Plate Reader, Molecular Devices) (Xie X, Van Deusen A L, Vitko I, Babu D A, Davies L A, Huynh N, Cheng H, Yang N, Barrett P Q, Perez-Reyes E. Validation of high throughput screening assays against three subtypes of Ca(v)3 T-type channels using molecular and pharmacologic approaches. Assay and Drug Development Technologies 2007, 5(2), 191-203). The HEK293 cells recombinantly expressing Cav3.2 are maintained in DMEM growth medium (Life Technologies) supplemented with 10% Fetal Bovine Serum (FBS), 100 U/ml penicilin (Life Technologies), 100 μg/ml streptomycin (Life Technologies) and 1 mg/ml G418 (Life Technologies). HEK293 cells recombinantly expressing Cav1.2 are maintained in DMEM growth medium (Life technologies) supplemented with 10% FBS, 0.1 mg/ml G418 (Life Technologies), 0.1 mg/ml hygromycin (Life Technologies) and 40 ug/ml zeocin (Life Technologies).
Cells are washed once with PBS, then dissociated in 0.25% trypsin/EDTA (Life Technologies) and seeded into poly-D-lysine coated 384-well black, clear bottom plates (BD Biosciences) at a density of 30,000 cells/well. The seeded plates are incubated overnight at 37° C.
Immediately prior to performing the assay, medium is removed and cells are treated for 1 hour at 37° C. with loading buffer containing HBSS 1× (137 mM NaCl; 5.4 mM KCl; 0.25 mM Na2HPO4; 1.3 mM CaCl2; 0.4 mM MgSO04; 0.5 mM MgCl2; 0.4 mM KH2PO4, pH 7.4), 0.375 g/L NaHCO3, 20 mM Hepes, supplemented with 3 μM Fluo-4-AM and 0.15% Pluronic (Life Technologies). The cells are then washed three times with assay buffer (HBSS 1×; 0.375 g/L NaHCO3; 20 mM Hepes; 1% FBS; pH 7.4) and allowed to rest in 50 μl of wash buffer for 30 minutes.
Stock solutions of test compounds are prepared to a concentration of 10 mM in DMSO. For the Cav3.2 assay, serial dilutions of the compounds are prepared in TEAC buffer (100 mM tetraethylammonium chloride; 20 mM Hepes; 2.5 mM CaCl2; 5 mM KCl; 1 mM MgCl2; 1% FBS; pH 7.2), for the Cav1.2 assay serial dilutions are prepared in assay buffer. […] The compounds are incubated with the cells for 3 minutes and Ca2+ entry is stimulated by adding either CaCl2 to a final concentration of 10 mM (Cav3.2 assay) or by adding KCl to a final concentration of 20 mM (Cav1.2 assay). The kinetics of fluorescence increase are recorded for every well and the area under the fluorescence trace for every compound concentration is used to generate inhibition curves using non-linear regression sigmoidal concentration-response curve analysis with in-house software. IC50 values are calculated and represent the compound concentration required to inhibit 50% of the signal that is obtained in the presence of vehicle instead of test compound.

Chain of Cav3.2 (O95180 whole entry, looked up): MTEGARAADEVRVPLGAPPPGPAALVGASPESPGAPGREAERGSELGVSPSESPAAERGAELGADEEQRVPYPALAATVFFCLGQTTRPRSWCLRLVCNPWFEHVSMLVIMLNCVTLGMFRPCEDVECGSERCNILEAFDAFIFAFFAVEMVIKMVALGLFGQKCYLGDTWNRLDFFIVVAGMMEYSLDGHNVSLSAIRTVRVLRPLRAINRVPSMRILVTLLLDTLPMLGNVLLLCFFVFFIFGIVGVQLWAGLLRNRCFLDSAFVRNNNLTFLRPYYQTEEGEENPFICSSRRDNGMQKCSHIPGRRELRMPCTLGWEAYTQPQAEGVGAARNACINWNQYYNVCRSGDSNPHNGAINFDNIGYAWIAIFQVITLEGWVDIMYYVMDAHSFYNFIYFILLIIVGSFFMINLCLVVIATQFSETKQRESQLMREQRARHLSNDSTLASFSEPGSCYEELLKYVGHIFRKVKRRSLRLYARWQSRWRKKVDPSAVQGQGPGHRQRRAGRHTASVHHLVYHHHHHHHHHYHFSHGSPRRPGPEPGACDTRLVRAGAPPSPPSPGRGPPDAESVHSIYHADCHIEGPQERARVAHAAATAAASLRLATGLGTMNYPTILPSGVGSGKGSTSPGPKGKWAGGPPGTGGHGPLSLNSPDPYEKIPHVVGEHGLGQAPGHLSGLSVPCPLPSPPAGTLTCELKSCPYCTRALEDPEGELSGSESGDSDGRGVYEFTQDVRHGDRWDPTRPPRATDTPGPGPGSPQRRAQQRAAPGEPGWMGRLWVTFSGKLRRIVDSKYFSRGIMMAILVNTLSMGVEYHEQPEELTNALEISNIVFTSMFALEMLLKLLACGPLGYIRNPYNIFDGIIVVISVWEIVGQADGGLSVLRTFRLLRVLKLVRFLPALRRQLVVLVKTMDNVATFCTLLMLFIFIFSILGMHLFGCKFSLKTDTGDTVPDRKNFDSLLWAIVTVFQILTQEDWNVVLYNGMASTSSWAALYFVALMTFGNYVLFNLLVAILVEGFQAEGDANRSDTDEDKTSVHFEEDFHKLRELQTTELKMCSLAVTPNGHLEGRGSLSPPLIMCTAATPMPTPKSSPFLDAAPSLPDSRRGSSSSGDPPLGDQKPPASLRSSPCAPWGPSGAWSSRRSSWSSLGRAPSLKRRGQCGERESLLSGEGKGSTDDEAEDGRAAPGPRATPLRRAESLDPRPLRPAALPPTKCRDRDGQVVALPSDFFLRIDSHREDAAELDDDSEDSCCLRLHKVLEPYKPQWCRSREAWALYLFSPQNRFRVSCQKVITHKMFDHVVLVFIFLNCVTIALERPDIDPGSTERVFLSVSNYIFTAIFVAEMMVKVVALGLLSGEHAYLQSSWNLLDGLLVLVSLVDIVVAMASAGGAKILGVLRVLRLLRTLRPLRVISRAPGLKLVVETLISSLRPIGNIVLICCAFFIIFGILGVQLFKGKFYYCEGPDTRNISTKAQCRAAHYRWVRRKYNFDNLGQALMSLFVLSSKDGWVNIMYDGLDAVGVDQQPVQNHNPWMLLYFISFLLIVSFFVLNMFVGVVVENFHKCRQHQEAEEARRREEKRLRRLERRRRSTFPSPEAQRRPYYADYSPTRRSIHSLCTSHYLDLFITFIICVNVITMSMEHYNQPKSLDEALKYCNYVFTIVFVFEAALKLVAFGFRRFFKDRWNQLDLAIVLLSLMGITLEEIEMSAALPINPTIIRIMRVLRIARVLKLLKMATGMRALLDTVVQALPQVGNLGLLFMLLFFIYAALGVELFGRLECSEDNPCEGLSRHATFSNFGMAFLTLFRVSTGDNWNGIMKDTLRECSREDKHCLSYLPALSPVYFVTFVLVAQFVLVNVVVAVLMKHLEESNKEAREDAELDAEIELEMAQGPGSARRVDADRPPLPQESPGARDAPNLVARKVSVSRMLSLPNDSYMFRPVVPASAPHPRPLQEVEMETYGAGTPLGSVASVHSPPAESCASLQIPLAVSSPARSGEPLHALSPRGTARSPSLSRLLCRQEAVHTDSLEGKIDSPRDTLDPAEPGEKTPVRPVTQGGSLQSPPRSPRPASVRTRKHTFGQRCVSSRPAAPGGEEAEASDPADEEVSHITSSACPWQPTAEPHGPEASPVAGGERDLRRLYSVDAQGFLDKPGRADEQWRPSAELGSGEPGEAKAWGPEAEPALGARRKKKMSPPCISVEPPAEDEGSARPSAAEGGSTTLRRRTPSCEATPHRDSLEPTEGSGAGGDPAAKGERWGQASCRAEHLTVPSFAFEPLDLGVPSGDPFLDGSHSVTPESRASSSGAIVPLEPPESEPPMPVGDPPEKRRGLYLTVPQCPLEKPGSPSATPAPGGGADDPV

| SMILES | IC50 |
| --- | --- |
| CC1(c2ccc(CC(=O)Nc3cnn(Cc4ccc(C#N)c(F)c4)n3)cc2)COC1 [Example 72, N-[2-(4-Cyano-3-fluoro-benzyl)-2H-[1,2,3]triazol-4-yl]-2-[4-(3-methyl-oxetan-3-yl)-phenyl]-acetamide] | 74 nM |
| CC(C)c1ccc(CC(=O)Nc2cnn(Cc3ccc(C#N)c(F)c3)n2)cc1 [Example 74, N-[2-(4-Cyano-3-fluoro-benzyl)-2H-[1,2,3]triazol-4-yl]-2-(4-isopropyl-phenyl)-acetamide] | 45 nM |
| N#Cc1ccc(Cn2ncc(NC(=O)Cc3ccc(N4CCCC4)nc3)n2)cc1F [Example 75, N-[2-(4-Cyano-3-fluoro-benzyl)-2H-[1,2,3]triazol-4-yl]-2-(6-pyrrolidin-1-yl-pyridin-3-yl)-acetamide] | 87 nM |
| Cn1ncc2cc(CC(=O)Nc3cnn(Cc4ccc(C#N)c(F)c4)n3)ccc21 [Example 76, N-[2-(4-Cyano-3-fluoro-benzyl)-2H-[1,2,3]triazol-4-yl]-2-(1-methyl-1H-indazol-5-yl)-acetamide] | 120 nM |
| COc1c(F)cc(Cn2ncc(NC(=O)Cc3ccc4c(ccn4C)c3)n2)cc1F [Example 77, N-[2-(3,5-Difluoro-4-methoxy-benzyl)-2H-[1,2,3]triazol-4-yl]-2-(1-methyl-1H-indol-5-yl)-acetamide] | 13 nM |
| COc1c(F)cc(Cn2ncc(NC(=O)Cc3ccc(C4(C)COC4)cc3)n2)cc1F [Example 78, N-[2-(3,5-Difluoro-4-methoxy-benzyl)-2H-[1,2,3]triazol-4-yl]-2-[4-(3-methyl-oxetan-3-yl)-phenyl]-acetamide] | 49 nM |
| COc1c(F)cc(Cn2ncc(NC(=O)Cc3ccc(N4CCCC4)nc3)n2)cc1F [Example 81, N-[2-(3,5-Difluoro-4-methoxy-benzyl)-2H-[1,2,3]triazol-4-yl]-2-(6-pyrrolidin-1-yl-pyridin-3-yl)-acetamide] | 28 nM |
| COCCOc1ccc(Cn2ncc(NC(=O)Cc3ccc(C(C)(C)C)cc3)n2)cc1 [Example 86, 2-(4-tert-Butyl-phenyl)-N-{2-[4-(2-methoxy-ethoxy)-benzyl]-2H-[1,2,3]triazol-4-yl}-acetamide] | 130 nM |
| CC(C)(C)c1ccc(CC(=O)Nc2cnn(Cc3ccc(OC(F)F)cc3)n2)cc1 [Example 88, 2-(4-tert-Butyl-phenyl)-N-[2-(4-difluoromethoxy-benzyl)-2H-[1,2,3]triazol-4-yl]-acetamide] | 56 nM |
| CC(C)(C)c1ccc(CC(=O)Nc2cnn(Cc3ccc(OC(F)(F)F)cc3)n2)cc1 [Example 90, 2-(4-tert-Butyl-phenyl)-N-[2-(4-trifluoromethoxy-benzyl)-2H-[1,2,3]triazol4-yl]-acetamide] | 200 nM |
| Cn1ccc2cc(CC(=O)Nc3cnn(Cc4ccc(OC(F)(F)F)cc4)n3)ccc21 [Example 91, 2-(1-Methyl-1H-indol-5-yl)-N-[2-(4-trifluoromethoxy-benzyl)-2H-[1,2,3]triazol-4-yl]-acetamide] | 7.4 nM |
| Cn1ncc2cc(CC(=O)Nc3cnn(Cc4ccc(OC(F)(F)F)cc4)n3)ccc21 [Example 92, 2-(1-Methyl-1H-indazol-5-yl)-N-[2-(4-trifluoromethoxy-benzyl)-2H-[1,2,3]triazol-4-yl]-acetamide] | 9.9 nM |
| CC1(c2ccc(CC(=O)Nc3cnn(Cc4ccc(OC(F)(F)F)cc4)n3)cc2)COC1 [Example 93, 2-[4-(3-Methyl-oxetan-3-yl)-phenyl]-N-[2-(4-trifluoromethoxy-benzyl)-2H-[1,2,3]triazol-4-yl]-acetamide] | 15 nM |
| O=C(Cc1ccc(N2CCC(F)(F)C2)nc1)Nc1cnn(Cc2ccc(F)cc2)n1 [Example 94, 2-[6-(3,3-Difluoro-pyrrolidin-1-yl)-pyridin-3-yl]-N-[2-(4-fluoro-benzyl)-2H-[1,2,3]triazol-4-yl]-acetamide] | 10 nM |
| CCN(CC)c1ccc(CC(=O)Nc2cnn(Cc3ccc(F)cc3)n2)cn1 [Example 95, 2-(6-Diethylamino-pyridin-3-yl)-N-[2-(4-fluoro-benzyl)-2H-[1,2,3]triazol-4-yl]-acetamide] | 46 nM |
| CC(C)(C)c1ccc(CC(=O)Nc2cnn(Cc3ccc(C#N)cc3)n2)cc1 [Example 96, 2-(4-tert-Butyl-phenyl)-N-[2-(4-cyano-benzyl)-2H-[1,2,3]triazol-4-yl]-acetamide] | 44 nM |
| N#Cc1ccc(Cn2ncc(NC(=O)Cc3ccc(N4CCC(F)(F)C4)nc3)n2)cc1 [Example 97, N-[2-(4-Cyano-benzyl)-2H-[1,2,3]triazol-4-yl]-2-[6-(3,3-difluoro-pyrrolidin-1-yl)-pyridin-3-yl]-acetamide] | 36 nM |
| Cn1ncc2ccc(CC(=O)Nc3cnn(Cc4ccc(C#N)cc4)n3)cc21 [Example 101, N-[2-(4-Cyano-benzyl)-2H-[1,2,3]triazol-4-yl]-2-(1-methyl-1H-indazol-6-yl)-acetamide] | 480 nM |
| Cc1nn(C)c2ccc(CC(=O)Nc3cnn(Cc4ccc(C#N)cc4)n3)cc12 [Example 102, N-[2-(4-Cyano-benzyl)-2H-[1,2,3]triazol-4-yl]-2-(1,3-dimethyl-1H-indazol-5-yl)-acetamide] | 160 nM |
| CCCn1ncc2cc(CC(=O)Nc3cnn(Cc4ccc(C#N)cc4)n3)ccc21 [Example 104, N-[2-(4-Cyano-benzyl)-2H-[1,2,3]triazol-4-yl]-2-(1-propyl-1H-indazol-5-yl)-acetamide] | 70 nM |

More lines, in order of falling IC50, values ahead:

| IC50 | SMILES |
| --- | --- |
| 460 nM | COCCOc1ccc(Cn2ncc(NC(=O)Cc3ccc4c(ccn4C)c3)n2)cc1 [Example 87, N-{2-[4-(2-Methoxy-ethoxy)-benzyl]-2H-[1,2,3]triazol-4-yl}-2-(1-methyl-1H-indol-5-yl)-acetamide] |
| 83 nM | N#Cc1ccc(Cn2ncc(NC(=O)Cc3ccc(N4CCCC4)nc3)n2)cc1 [Example 98, N-[2-(4-Cyano-benzyl)-2H-[1,2,3]triazol-4-yl]-2-(6-pyrrolidin-1-yl-pyridin-3-yl)-acetamide] |
| 74 nM | CCn1ncc2cc(CC(=O)Nc3cnn(Cc4ccc(C#N)cc4)n3)ccc21 [Example 103, N-[2-(4-Cyano-benzyl)-2H-[1,2,3]triazol-4-yl]-2-(1-ethyl-1H-indazol-5-yl)-acetamide] |
| 46 nM | COc1c(F)cc(Cn2ncc(NC(=O)Cc3ccc(C(C)(C)C)cc3)n2)cc1F [Example 79, 2-(4-tert-Butyl-phenyl)-N-[2-(3,5-difluoro-4-methoxy-benzyl)-2H-[1,2,3]triazol-4-yl]-acetamide] |
| 37 nM | CC(C)(C)c1ccc(CC(=O)Nc2cnn(Cc3ccc(C#N)c(F)c3)n2)cc1 [Example 73, 2-(4-tert-Butyl-phenyl)-N-[2-(4-cyano-3-fluoro-benzyl)-2H-[1,2,3]triazol-4-yl]-acetamide] |
| 29 nM | COc1c(F)cc(Cn2ncc(NC(=O)Cc3ccc(C(C)C)cc3)n2)cc1F [Example 80, N-[2-(3,5-Difluoro-4-methoxy-benzyl)-2H-[1,2,3]triazol-4-yl]-2-(4-isopropyl-phenyl)-acetamide] |
| 23 nM | COc1c(F)cc(Cn2ncc(NC(=O)Cc3ccc4c(cnn4C)c3)n2)cc1F [Example 82, N-[2-(3,5-Difluoro-4-methoxy-benzyl)-2H-[1,2,3]triazol-4-yl]-2-(1-methyl-1H-indazol-5-yl)-acetamide] |
| 22 nM | Cc1cn(C)c2ccc(CC(=O)Nc3cnn(Cc4ccc(C#N)cc4)n3)cc12 [Example 100, N-[2-(4-Cyano-benzyl)-2H-[1,2,3]triazol4-yl]-2-(1,3-dimethyl-1H-indol-5-yl)-acetamide] |
| 20 nM | Cn1ccc2cc(CC(=O)Nc3cnn(Cc4ccc(OC(F)F)cc4)n3)ccc21 [Example 89, N-[2-(4-Difluoromethoxy-benzyl)-2H-[1,2,3]triazol-4-yl]-2-(1-methyl-1H-indol-5-yl)-acetamide] |
| 19 nM | Cn1ccc2cc(CC(=O)Nc3cnn(Cc4ccc(C#N)cc4)n3)ccc21 [Example 99, N-[2-(4-Cyano-benzyl)-2H-[1,2,3]triazol-4-yl]-2-(1-methyl-1H-indol-5-yl)-acetamide] |
